# Tested on: Triticum aestivum
# Assay: Drought stress test on wheat Part D, reduction in damage intensity from fresh weights
# Type: in vivo
# Conditions: efficacy = reduction in damage intensity (fresh weight) under drought stress, 25 g/ha, at least three repeats
# Excerpt: Wheat grains were sown in a standardized number in sandy loam soil plastic pots, covered with soil or sand and grown in a greenhouse under good growth conditions. Pots with uneven degrees of emergence were excluded prior to the start of the trial. The treatment with test substances was effected at the early leaf stage (BBCH10-BBCH13). To assure uniform water supply, the potted plants were supplied with water by dam irrigation prior to substance application. The inventive compounds were first formulated as wettable powders (WP) or dissolved in a solvent mixture. The further dilution was effected with water supplemented with 0.2% wetting agent (e.g. agrotin). The finished spray liquor was sprayed onto the green parts of the plant at an equivalent water application rate of 600 l/ha. Substance application was followed immediately by stress treatment of the plants. Drought stress was induced by gradual drying out under the following conditions: “Day”: 14 hours with illumination at 26-30° C. “Night”: 10 hours without illumination at 18-20° C. The duration of the respective stress phases was guided mainly by the condition of the stressed control plants. It was ended (by re-irrigating and transfer to a greenhouse with good growth conditions) as soon as irreversible damage was observed on the stressed control plants. The end of the stress phase was followed by an about 7-day recovery phase, during which the plants were once again kept under good growth conditions in a greenhouse. The exact duration of the recovery phase was variable for reasons related to the trial. At the end of the recovery phase, the fresh weights of the plant parts above ground were determined. By comparison with unstressed control plants which were kept under good growth conditions over the entire duration of the trial, percentage damage intensities were first calculated from the fresh weight values. The reduction in damage intensity resulting from treatment with test substance was then calculated by the following formula: [formula] EF: Efficacy DIs: Damage intensity of the stressed control plants DIt: Damage intensity of the stressed plants treated with test compound The values reported in table D-1 below are results from at least three repeats. BRSNS=Brassica napus TRZAS=Triticum aestivum
smiles,measurement,value
COC(=O)CCN1C(=O)CCc2cc(NS(=O)(=O)Cc3ccc(F)cc3)ccc21 [A51-158],EF [%] (TRZAS),11%
